# Values quoted from earlier work, collected in patent publication US7678393B1, “Mixture composition and method useful for topical and internal application” (DB Laboratories LLC, priority 2006, dated 2010).
# What was measured:
# F0F1-ATPase/ATP synthase = details: micromolar concentrations
# Interlukin-2 (IL-2) = Interlukin-2 (IL-2) (Homo sapiens, UniProt P60568); details: by direct binding of IL-2
# cyclooxygenase-2 (COX-2) = details: LPS stimulation
# iNOS = details: LPS stimulation
# Sequence of Interlukin-2 (IL-2) (P60568 21-153, species assumed): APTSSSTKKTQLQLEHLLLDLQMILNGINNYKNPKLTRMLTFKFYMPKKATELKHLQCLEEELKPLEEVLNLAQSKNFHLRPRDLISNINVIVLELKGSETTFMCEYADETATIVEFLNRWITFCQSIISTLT
Compound,inhibition of F0F1-ATPase/ATP synthase (F0F1-ATPase/ATP synthase),COX-2 activation by LPS (cyclooxygenase-2 (COX-2)),iNOS activation by LPS (iNOS),further results
O=C(OC[C@H]1O[C@@H](OC(=O)c2cc(O)c(O)c(OC(=O)c3cc(O)c(O)c(O)c3)c2)[C@H](OC(=O)c2cc(O)c(O)c(OC(=O)c3cc(O)c(O)c(O)c3)c2)[C@@H](OC(=O)c2cc(O)c(O)c(OC(=O)c3cc(O)c(O)c(O)c3)c2)[C@@H]1OC(=O)c1cc(O)c(O)c(OC(=O)c2cc(O)c(O)c(O)c2)c1)c1cc(O)c(O)c(OC(=O)c2cc(O)c(O)c(O)c2)c1 [tannic acid],showed inhibition at micromolar concentrations,–,–,–
Lipoteichoic acid [LTA],–,–,–,"bound in plasma lipoproteins, efficiency (plasma lipoproteins; plasma): > 95%; distribution in HDL (plasma lipoproteins; plasma lipoproteins): 68%±10%; distribution in LDL (plasma lipoproteins; plasma lipoproteins): 28%±8%; distribution in VLDL (plasma lipoproteins; plasma lipoproteins): 4%±5%; Interlukin-2 function (Interlukin-2 (IL-2)): inhibits"
Oc1ccc(/C=C/c2cc(O)cc(O)c2)cc1 [resveratol],showed inhibition at micromolar concentrations,–,–,–
O=c1c(O)c(-c2ccc(O)cc2)oc2cc(O)cc(O)c12 [kaempferol],showed inhibition at micromolar concentrations,inhibited,inhibited,–
O=c1cc(-c2ccc(O)cc2)oc2cc(O)cc(O)c12 [apigenin],–,inhibited,inhibited,–
O=C(O[C@@H]1Cc2c(O)cc(O)cc2O[C@@H]1c1cc(O)c(O)c(O)c1)c1cc(O)c(O)c(O)c1 [(−)epigallocatechin-3-gallate],showed inhibition at micromolar concentrations,inhibited,inhibited,–
